# Measured values taken from ChEMBL document CHEMBL1201862, “PubChem BioAssay data set” (2004).
# Calls of active or inactive are those of the source. For most assays here, no stated cut-off is given here; in the data, actives have a measured IC50 and inactives only a lower limit.
# What was measured:
# Type in all cases: functional
# [1] = target: T1, Caspase-3 (Homo sapiens, UniProt P42574);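 further: Dose-response selectivity test against caspase-3 for candidate inhibitors of sentrin-specific proteases (SENPs)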
# T1 sequence (P42574 whole entry): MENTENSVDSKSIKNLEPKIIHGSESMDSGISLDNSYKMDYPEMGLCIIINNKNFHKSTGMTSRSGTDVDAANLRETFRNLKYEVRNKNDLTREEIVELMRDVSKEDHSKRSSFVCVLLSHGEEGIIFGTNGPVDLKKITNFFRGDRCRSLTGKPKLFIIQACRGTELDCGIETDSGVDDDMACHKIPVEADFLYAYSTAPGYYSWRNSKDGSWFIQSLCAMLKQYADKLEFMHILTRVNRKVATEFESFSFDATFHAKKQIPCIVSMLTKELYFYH
# [2] = target: T2, Protein RecA (Mycobacterium tuberculosis, UniProt P9WHJ3); assay: Fluorescence Cell-Free Homogeneous Dose Retest to Identify Inhibitors of RecA-Intein Splicing Activity. [Related pubchem assays (depositor defined):AID2097, AID2223, AID489010, AID492950]
# T2 sequence (P9WHJ3 whole entry): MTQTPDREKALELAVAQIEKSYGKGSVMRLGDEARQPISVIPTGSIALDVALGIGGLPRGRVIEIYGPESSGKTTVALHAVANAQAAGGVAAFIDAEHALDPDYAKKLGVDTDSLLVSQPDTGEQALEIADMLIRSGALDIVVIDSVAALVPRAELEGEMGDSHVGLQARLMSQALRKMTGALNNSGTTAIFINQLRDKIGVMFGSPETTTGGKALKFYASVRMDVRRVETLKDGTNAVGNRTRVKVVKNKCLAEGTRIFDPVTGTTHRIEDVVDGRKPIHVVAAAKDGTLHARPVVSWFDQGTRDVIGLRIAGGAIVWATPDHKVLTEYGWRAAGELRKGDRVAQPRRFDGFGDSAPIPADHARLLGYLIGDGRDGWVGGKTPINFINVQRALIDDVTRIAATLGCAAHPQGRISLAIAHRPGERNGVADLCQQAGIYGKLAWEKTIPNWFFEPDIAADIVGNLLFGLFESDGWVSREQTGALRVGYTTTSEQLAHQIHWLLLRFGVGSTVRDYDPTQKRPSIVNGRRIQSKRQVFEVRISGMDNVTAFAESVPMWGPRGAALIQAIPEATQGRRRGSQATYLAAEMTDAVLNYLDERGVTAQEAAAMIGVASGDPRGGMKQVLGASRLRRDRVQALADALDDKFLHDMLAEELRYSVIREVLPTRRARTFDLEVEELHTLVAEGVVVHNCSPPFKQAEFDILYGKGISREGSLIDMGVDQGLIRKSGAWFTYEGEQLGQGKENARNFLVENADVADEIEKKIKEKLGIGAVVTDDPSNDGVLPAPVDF
# [3] = target: T3, Sentrin-specific protease 7 (Homo sapiens, UniProt Q9BQF6);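 further: Luminescence-based dose-response confirmation of ultra-high-throughput screening hits, measuring inhibition of SENP7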
# T3 sequence (Q9BQF6 whole entry): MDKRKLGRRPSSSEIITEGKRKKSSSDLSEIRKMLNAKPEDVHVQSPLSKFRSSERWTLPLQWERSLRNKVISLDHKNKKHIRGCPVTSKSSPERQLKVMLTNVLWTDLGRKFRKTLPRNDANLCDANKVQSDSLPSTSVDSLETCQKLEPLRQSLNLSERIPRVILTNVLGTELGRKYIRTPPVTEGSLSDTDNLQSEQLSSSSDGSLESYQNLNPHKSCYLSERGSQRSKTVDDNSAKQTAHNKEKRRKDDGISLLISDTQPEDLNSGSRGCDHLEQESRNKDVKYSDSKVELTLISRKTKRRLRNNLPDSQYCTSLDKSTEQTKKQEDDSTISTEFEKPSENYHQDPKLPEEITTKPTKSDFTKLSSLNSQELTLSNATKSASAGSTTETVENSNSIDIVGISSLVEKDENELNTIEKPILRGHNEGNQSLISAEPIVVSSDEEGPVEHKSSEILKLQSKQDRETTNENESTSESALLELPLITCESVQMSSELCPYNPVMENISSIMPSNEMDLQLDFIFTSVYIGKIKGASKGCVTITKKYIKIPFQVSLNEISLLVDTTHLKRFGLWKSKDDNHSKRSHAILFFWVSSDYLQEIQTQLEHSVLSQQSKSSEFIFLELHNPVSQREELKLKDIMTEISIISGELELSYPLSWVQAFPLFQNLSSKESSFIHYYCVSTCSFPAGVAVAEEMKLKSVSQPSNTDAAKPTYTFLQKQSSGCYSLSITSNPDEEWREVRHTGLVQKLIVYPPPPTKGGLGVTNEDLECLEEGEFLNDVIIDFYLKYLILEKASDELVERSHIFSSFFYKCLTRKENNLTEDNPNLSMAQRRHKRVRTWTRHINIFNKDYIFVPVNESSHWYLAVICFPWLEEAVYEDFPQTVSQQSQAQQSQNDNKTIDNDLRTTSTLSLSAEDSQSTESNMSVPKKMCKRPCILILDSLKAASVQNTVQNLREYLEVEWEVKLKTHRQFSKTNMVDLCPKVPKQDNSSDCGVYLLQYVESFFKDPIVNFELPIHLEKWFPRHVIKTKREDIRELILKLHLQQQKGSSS
SMILES,IC50 [1],EC50 [2],IC50 [3]
O=C(NC1(O)C(=O)c2ccccc2C1=O)c1c(Cl)cccc1Cl,> 100 µM (inactive),28.6 µM (active),3.76 µM (active)
O=C(COC(=O)c1ccc([N+](=O)[O-])s1)Nc1ncc(C(F)(F)F)cc1Cl,10 µM (active),,10.5 µM (active)
CCN(c1ccccc1)c1cc2ccccc2c(=O)[nH]1,2.69 µM (active),> 380 µM (inactive),3.37 µM (active)
Cn1c(=O)[nH]c(=O)c2c1nc([N+](=O)[O-])n2Cc1ccccc1,,5.87 µM (active),
O=C(NC1(O)C(=O)c2ccccc2C1=O)c1ccc(C(F)(F)F)cc1,94.5 µM (active),,3.51 µM (active)
